In patent US12492173B2, “Herbicidal substituted N-tetrazolyl aryl carboxamides” (Bayer Aktiengesellschaft, priority 2019, dated 2025):

How the values were obtained:
Type in all cases: in vivo
Abutilon theophrasti [1] = test: Post-emergence herbicidal action, ABUTH; set-up: key: % herbicidal action vs untreated; 100 = plants died, 0 = like control
Outline: (§1)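 Percent herbicidal effect was rated visually about 3 weeks after treatment, relative to untreated plants (0% = like control, 100% = dead). Compounds, formulated as WP or EC, went on as aqueous spray (600–800 l/ha, 0.2% wetting agent) to one-leaf-stage plants 2–3 weeks post-sowing in sandy loam.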

Matricaria inodora = test: Pre-emergence herbicidal action, MATIN; set-up: key to Herbicidal action against MATIN: % activity: 100 = plants have died, 0 = like control plants; conditions: for herbicidal action MATIN / herbicidal activity MATIN: dosage 320 g/ha; for herbicidal activity MATIN: scored visually after 3 weeks vs untreated controls (100% = plants have died); for Herbicidal action against MATIN: comparative experiment
Outline: (§2)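 Seeds were covered with sandy loam soil, then received a pre-emergence surface spray of the WP- or EC-formulated compound. After 3 weeks under good greenhouse growth conditions, damage was scored visually in percent.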

Abutilon theophrasti [2] = test: Pre-emergence herbicidal action, ABUTH; set-up: key to Herbicidal action against ABUTH: % activity: 100 = plants have died, 0 = like control plants; conditions: for herbicidal action ABUTH / herbicidal activity ABUTH: dosage 320 g/ha; for herbicidal activity ABUTH: scored visually after 3 weeks vs untreated controls (100% = plants have died); for Herbicidal action against ABUTH: comparative experiment
Outline: as §2

Echinochloa crus-galli = test: Post-emergence herbicidal action, ECHCG; set-up: key: % herbicidal action vs untreated; 100 = plants died, 0 = like control
Outline: as §1

Avena fatua = test: Post-emergence herbicidal action, AVEFA; set-up: key: % herbicidal action vs untreated; 100 = plants died, 0 = like control
Outline: as §1

Polygonum convolvulus = test: Post-emergence herbicidal action, POLCO; conditions: for Herbicidal action against POLCO: comparative experiment
Outline: as §1

[3] = comparative experiment, post-emergence, 5 g of a.i./ha
[4] = comparative experiment, post-emergence, 20 g of a.i./ha

SMILES	herbicidal action ABUTH (Abutilon theophrasti [1]; Dosage 80 g/ha)	herbicidal action MATIN (Matricaria inodora)	herbicidal action ABUTH (Abutilon theophrasti [2])	herbicidal action ECHCG (Echinochloa crus-galli; Dosage 80 g/ha)	herbicidal activity MATIN (Matricaria inodora)	herbicidal activity ABUTH (Abutilon theophrasti [2])	herbicidal action AVEFA (Avena fatua; Dosage 80 g/ha)	other results
Cc1ccc(C(=O)Nc2nnnn2C)c(Cl)c1C[S+](C)[O-] (racemic) [Example 1-288]	90	100%	90%	90				
CC[S+]([O-])Cc1c(C(F)(F)F)ccc(C(=O)Nc2nnnn2C)c1Cl (racemic) [Example 1-300]					100%	100%		herbicidal action ABUTH (Abutilon theophrasti [1]; post-emergence, dosage 80 g/ha): 90%; herbicidal action AVEFA (Avena fatua; post-emergence, dosage 80 g/ha): 100%; herbicidal action POLCO (Polygonum convolvulus; post-emergence, dosage 80 g/ha): 100%; herbicidal action ECHCG (Echinochloa crus-galli; post-emergence, dosage 80 g/ha): 100%
Cn1nnnc1NC(=O)c1ccc(C(F)(F)F)c(C[S+]([O-])C2CC2)c1Cl (racemic) [Example 1-303]					100%	100%		herbicidal action ABUTH (Abutilon theophrasti [1]; post-emergence, dosage 80 g/ha): 100%; herbicidal action AVEFA (Avena fatua; post-emergence, dosage 80 g/ha): 100%; herbicidal action POLCO (Polygonum convolvulus; post-emergence, dosage 80 g/ha): 100%; herbicidal action ECHCG (Echinochloa crus-galli; post-emergence, dosage 80 g/ha): 100%
Cn1nnnc1NC(=O)c1ccc(I)c(C[S+](C)[O-])c1Cl (racemic) [Example 1-363]					100%	100%		herbicidal action ABUTH (Abutilon theophrasti [1]; post-emergence, dosage 80 g/ha): 100%; herbicidal action AVEFA (Avena fatua; post-emergence, dosage 80 g/ha): 100%; Herbicidal action against MATIN (Matricaria inodora; 20 g of a.i./ha): 90; Herbicidal action against ABUTH (Abutilon theophrasti [2]; 20 g of a.i./ha): 100; herbicidal action ECHCG (Echinochloa crus-galli; post-emergence, dosage 80 g/ha): 100%
Cc1c(C(=O)Nc2nnnn2C)ccc(C(F)F)c1C[S+](C)[O-] (stereo not drawn) [Example 1-108]	80	90%	100%	80				
COc1c(C(=O)Nc2nnnn2C)ccc(C(F)(F)F)c1C[S+](C)[O-] (stereo not drawn) [Example 1-135]	90	90%	100%	90				
CSc1c(C(=O)Nc2nnnn2C)ccc(C(F)F)c1C[S+](C)[O-] (stereo not drawn) [Example 1-171]	100			100	100%	100%		herbicidal action POLCO (Polygonum convolvulus; Dosage 80 g/ha): 100
CCSCc1c(C(F)(F)F)ccc(C(=O)Nc2nnnn2C)c1SCC [Example 1-182]	90			90	100%	100%	80	Herbicidal action against ABUTH (Abutilon theophrasti [1]; [3]): 70; Herbicidal action against MATIN (Matricaria inodora; 20 g of a.i./ha): 80; Herbicidal action against ECHCG (Echinochloa crus-galli; [3]): 80
CSCc1c(C)ccc(C(=O)Nc2nnnn2C)c1Cl [Example 1-287]	100	90%	100%	100			80	
Cn1nnnc1NC(=O)c1ccc(C(F)(F)F)c(CSCC(F)(F)F)c1Cl [Example 1-311]	100			100	100%	100%	100	
Cn1nnnc1NC(=O)c1ccc(I)c(CS(C)(=O)=O)c1Cl [Example 1-364]	100			100	100%	100%		herbicidal action POLCO (Polygonum convolvulus; Dosage 80 g/ha): 100
CSCc1c(Cl)ccc(C(=O)Nc2nnnn2C)c1Cl [Example 1-559]		90%	100%					herbicidal action ABUTH (Abutilon theophrasti [1]; post-emergence, dosage 80 g/ha): 90%; herbicidal action AVEFA (Avena fatua; post-emergence, dosage 80 g/ha): 100%; herbicidal action ECHCG (Echinochloa crus-galli; post-emergence, dosage 80 g/ha): 100%
COc1c(C(=O)Nc2nnnn2C)ccc(Cl)c1CSC [Example 1-570]		100%	90%					Herbicidal action against ABUTH (Abutilon theophrasti [1]; post-emergence, dosage 80 g/ha): 90; Herbicidal action against POLCO (Polygonum convolvulus; post-emergence, 5 g of a.i./ha): 30; Herbicidal action against ECHCG (Echinochloa crus-galli; post-emergence, dosage 80 g/ha): 100
CCn1nnnc1NC(=O)c1ccc(C(F)(F)F)c(CS(=O)(=O)CC)c1C [Example 2-88]	80	100%	100%	90			90	
CCn1nnnc1NC(=O)c1ccc(C(F)F)c(C[S+](C)[O-])c1C (stereo not drawn) [Example 2-108]	100	100%	100%	100				
CCn1nnnc1NC(=O)c1ccc(C(F)F)c(CSC)c1SC [Example 2-170]	100			100	100%	100%		herbicidal action POLCO (Polygonum convolvulus; Dosage 80 g/ha): 90
CCn1nnnc1NC(=O)c1ccc(C(F)F)c(C[S+](C)[O-])c1SC (stereo not drawn) [Example 2-171]	100			90	100%	100%		herbicidal action POLCO (Polygonum convolvulus; Dosage 80 g/ha): 90
CCn1nnnc1NC(=O)c1ccc(S(C)(=O)=O)c(CS(C)(=O)=O)c1Cl [Example 2-280]		90%	100%					Herbicidal action against AVEFA (Avena fatua; post-emergence, dosage 80 g/ha): 90; Herbicidal action against ECHCG (Echinochloa crus-galli; post-emergence, dosage 80 g/ha): 90
CCCn1nnnc1NC(=O)c1ccc(S(C)(=O)=O)c(CSC)c1C [Example 3-37]	80	90%	80%	100			80	
CCCn1nnnc1NC(=O)c1ccc(S(C)(=O)=O)c(CS(C)(=O)=O)c1C [Example 3-39]	90	100%	100%	90			80	
CCCn1nnnc1NC(=O)c1ccc(C(F)F)c(C[S+](C)[O-])c1SC (stereo not drawn) [Example 3-171]	100			90	100%	100%		herbicidal action POLCO (Polygonum convolvulus; Dosage 80 g/ha): 90
CCCn1nnnc1NC(=O)c1ccc(C(F)F)c(CS(C)(=O)=O)c1SC [Example 3-172]	100			90	100%	100%		herbicidal action POLCO (Polygonum convolvulus; Dosage 80 g/ha): 80
C=CCSCc1c(C(F)(F)F)ccc(C(=O)Nc2nnnn2CCC)c1Cl [Example 3-308]	100			100	100%	100%	100	
CCCn1nnnc1NC(=O)c1ccc(C(F)F)c(CS(=O)(=O)CC)c1Cl [Example 3-325]	100			100	100%	100%	100	
CCCn1nnnc1NC(=O)c1ccc(C(F)(F)F)c(CS(C)(=O)=O)c1Br [Example 3-382]	100	100%	100%	90				herbicidal action POLCO (Polygonum convolvulus; Dosage 80 g/ha): 80
CCS(=O)(=O)c1c(C(F)(F)F)ccc(C(=O)Nc2nnnn2C)c1Br [Example V-13, 2-bromo-3-(ethylsulfonyl)-N-(1-methyl-1-1H-tetrazol-5-yl)-4-(trifluoromethyl)benzamide, reference compound]								Herbicidal action against AVEFA (Avena fatua; [4]): 0; Herbicidal action against POLCO (Polygonum convolvulus; post-emergence, 20 g of a.i./ha): 0; Herbicidal action against MATIN (Matricaria inodora; 80 g of a.i./ha): 0; Herbicidal action against ABUTH (Abutilon theophrasti [2]; 80 g of a.i./ha): 0; Herbicidal action against ECHCG (Echinochloa crus-galli; [4]): 0
